Where two headings read alike, the source gives them in different places.
Tests used:
[1] = Solubility under the conditions of the assay; conditions: Ellman's assay conditions
Method: (§1) In this study, carboxamides with different triterpenoic backbones (ursolic, oleanolic, maslinic, betulinic, and platanic acids), and various amine residues (Scheme 1), were investigated.
(§2) 3.1 Preparation of the solutions
(§3) Preparation of 50 mM Tris-HCl buffer solutions: Tris(hydroxymethyl)-aminomethane (606 mg) was dissolved in bidestilled water (100 mL) and adjusted with HCl to a pH of 8.0 ± 0.1. Buffers were freshly prepared and stored in the refrigerator. AChE solution 2.005 U/mL: the enzyme (271 U/mg, 0.037 mg) was dissolved in freshly prepared buffer pH 8.0 (5 mL) containing NaN3 (0.98 mg). BChE solution 2.040 U/mL: the enzyme (7.54 U/mg, 1.353 mg) was dissolved in freshly prepared buffer pH 8.0 (5 mL) containing NaN3 (0.98 mg). DTNB solution 3 mM: DTNB (23.8 mg) was dissolved in freshly prepared buffer pH 8.0 (20 mL) containing NaCl (116.8 mg) and MgCl2 (38.0 mg). ATChI solution 15 mM:
(§4) ATChI (43.4 mg) was dissolved in bidestilled water (10 mL). All solutions were stored in Eppendorf caps in the refrigerator or in the freezer, if necessary. The pure compounds were […]
(§5) dissolved in bidistilled water. The final concentrations for the enzymatic assay were obtained by diluting the stock solution with bidistilled water.
(§6) A mixture of the DTNB solution (125 µL), enzyme solution (25 µL) and compounds solutions (25 µL, 3 different concentrations and once blank water) was prepared and incubated at 30 °C for 20 min. The substrate (25 µL, 4 different concentrations) was added to start the enzymatic reaction. The absorbance data (l = 415 nm) was recorded under a controlled temperature of 30 °C for 30 min at 1 min intervals. The substrate concentrations in the test were as follows: […]
(§7) determined as the quotient of the slopes (compound divided by blank) of the linear ranges.
(§8) The used substrate concentration was 0.625 mM. The absorbance data was recorded under a controlled temperature of 30 °C for 10 min.

[2] = target: acetylcholinesterase (AChE, electric eel) (Electrophorus electricus, UniProt O42275); conditions: for Grade of inhibition in% AChE / Ki' (uncompetitive inhibition) / Ki: mean ± SE; for Type of Inhibition / Ki' (uncompetitive inhibition) / Ki: AChE, electric eel; for Ki: read-out: Ki (competitive inhibition)
Chain of acetylcholinesterase (AChE, electric eel) (O42275 24-633): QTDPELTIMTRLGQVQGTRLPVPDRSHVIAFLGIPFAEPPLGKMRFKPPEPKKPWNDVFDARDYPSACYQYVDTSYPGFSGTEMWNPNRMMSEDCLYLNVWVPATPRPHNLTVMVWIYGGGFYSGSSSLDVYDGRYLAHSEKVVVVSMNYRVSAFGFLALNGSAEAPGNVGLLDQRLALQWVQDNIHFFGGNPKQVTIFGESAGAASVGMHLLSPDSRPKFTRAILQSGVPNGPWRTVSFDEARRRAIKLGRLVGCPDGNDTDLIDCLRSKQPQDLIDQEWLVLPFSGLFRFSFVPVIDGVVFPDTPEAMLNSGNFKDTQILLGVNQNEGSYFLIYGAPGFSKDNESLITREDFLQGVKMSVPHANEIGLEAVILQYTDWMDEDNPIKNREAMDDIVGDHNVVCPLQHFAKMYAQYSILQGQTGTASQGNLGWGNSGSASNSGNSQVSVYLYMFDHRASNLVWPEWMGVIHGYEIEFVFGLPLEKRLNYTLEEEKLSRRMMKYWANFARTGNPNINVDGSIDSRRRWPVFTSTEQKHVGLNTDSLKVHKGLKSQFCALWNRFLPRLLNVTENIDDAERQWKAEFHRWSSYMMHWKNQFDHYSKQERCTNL
Excerpt: as §1
(§9) A TECAN SpectraFluorPlus working in the kinetic mode and measuring the absorbance at λ = 415 nm was used for the enzymatic studies. Acetylcholinesterase (from Electrophorus electricus), 5,5′-dithiobis-(2-nitrobenzoic acid) (DTNB) and acetylthiocholine iodide were purchased from Sigma. Butyrylcholinesterase (from equine serum) was purchased from Fluka. Preparation of the solutions, assay procedure, as well as molecular modeling conditions can be found in the Supplementary Materials.
as §2, §3, §4, §5, §6, §7, §8

[3] = target: T1, butyrylcholinesterase (BChE, equine serum) (Equus caballus, UniProt P81908); assay: Ellman's assay, butyrylcholinesterase inhibition; format: biochemical; conditions: for Grade of inhibition in% BChE: mean ± SE
T1 construct: Butyrylcholinesterase (from equine serum) was purchased from Fluka; purchased Fluka; host or cells: equine serum
T1 sequence (P81908 whole entry): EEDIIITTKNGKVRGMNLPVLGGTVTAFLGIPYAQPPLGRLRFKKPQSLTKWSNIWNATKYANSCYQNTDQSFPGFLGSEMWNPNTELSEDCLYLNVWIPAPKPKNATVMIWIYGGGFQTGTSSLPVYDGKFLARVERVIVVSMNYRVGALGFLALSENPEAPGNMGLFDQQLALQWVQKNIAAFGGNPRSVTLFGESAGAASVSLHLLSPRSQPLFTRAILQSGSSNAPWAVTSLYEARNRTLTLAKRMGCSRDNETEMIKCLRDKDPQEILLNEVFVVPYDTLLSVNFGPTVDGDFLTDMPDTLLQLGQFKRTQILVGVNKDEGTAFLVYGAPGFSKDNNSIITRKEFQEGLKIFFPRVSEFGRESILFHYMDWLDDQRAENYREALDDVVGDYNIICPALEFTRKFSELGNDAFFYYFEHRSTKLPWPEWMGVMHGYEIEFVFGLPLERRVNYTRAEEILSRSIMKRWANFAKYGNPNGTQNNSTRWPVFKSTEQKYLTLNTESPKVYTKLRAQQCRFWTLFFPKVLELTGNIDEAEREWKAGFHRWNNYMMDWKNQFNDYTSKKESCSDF
Excerpt: as §1, §9, §2, §3, §4, §5, §6, §7, §8

[4] = BChE, equine serum, Ellman's assay
[5] = BChE, equine serum, Ellman's assay, read-out: Ki (competitive inhibition)
[6] = experimental Ki restated in docking Table 3, unit inferred, read-out: Ki

| Structure (SMILES) | Grade of inhibition in% AChE ([2]; c = 10 µM) | Type of Inhibition ([3]; BChE, equine serum) | Ki′ (uncompetitive inhibition) [3, 4] | Ki [3, 5] | Grade of inhibition in% BChE ([3]; c = 10 µM) | Grade of inhibition in% AChE ([2]; c = 30 µM) | Grade of inhibition in% BChE ([3]; c = 30 µM) | further results |
| --- | --- | --- | --- | --- | --- | --- | --- | --- |
| CC(=O)OC1CCC2(C)C(CCC3(C)C2CC=C2C4CC(C)(C)CCC4(C(=O)NCCN(C)C)CCC23C)C1(C)C (stereo not drawn) [Compound 22, (3β)-N-[2-(Dimethylamino)-ethyl]-3-acetyloxy-olean-12-en-28-amide] | – | – | – | – | – | – | – | solubility under the conditions of the assay [1]: n.sol. |
| CC(=O)OC1CC2(C)C(CCC3(C)C2CC=C2C4CC(C)(C)CCC4(C(=O)NCCN(C)C)CCC23C)C(C)(C)C1OC(C)=O (stereo not drawn) [Compound 23, (2α,3β)-N-[2-(Dimethylamino)ethyl]-2,3-diacetyloxy-olean-12-en-28-amide] | – | – | – | – | – | – | – | solubility under the conditions of the assay [1]: n.sol. |
| C=C(C)C1CC[C@]2(C(=O)NCCN3CCCC3)CC[C@]3(C)C(CCC4[C@@]5(C)CC[C@H](OC(C)=O)C(C)(C)C5CC[C@]43C)C12 (stereo partly drawn) [Compound 34] | 44.15 ± 0.32% | mixed-type | > 5000 nM | 390 ± 40 nM | 71.56 ± 0.54% | – | – | Ki [3, 6]: 390 nM |
| CC(=O)O[C@H]1CC[C@]2(C)[C@H]3CC[C@@H]4[C@H]5[C@H](C(C)=O)CC[C@]5(C(=O)NCCN5CCCC5)CC[C@@]4(C)[C@]3(C)CC[C@H]2C1(C)C [Compound 35, (3β)-N-(2-pyrrolidin-1-ylethyl)-3-acetyloxy-20-oxo-30-norlupan-28-amide] | – | mixed-type | 2380 ± 480 nM | 70 ± 10 nM | – | 19.97 ± 0.13% | 94.60 ± 0.02% | Ki [3, 6]: 70 nM; selectivity F (percent inhibition for AChE divided by percent inhibition for BChE) ([3]; towards BChE): ≈ 0.21 |
| C[C@@H]1CC[C@]2(C(=O)NCCN3CCCC3)CC[C@]3(C)C(=CCC4[C@@]5(C)CC[C@H](O)C(C)(C)C5CC[C@]43C)C2[C@H]1C (stereo partly drawn) [Compound 36] | – | mixed-type | 2230 ± 120 nM | 470 ± 80 nM | – | 31.45 ± 0.60% | 85.66 ± 0.10% | – |
| CC1(C)CCC2(C(=O)NCCN3CCCC3)CCC3(C)C(=CCC4C5(C)CCC(O)C(C)(C)C5CCC43C)C2C1 (stereo not drawn) [Compound 37, (3β)-N-(2-Pyrrolidin-1-ylethyl)-3-hydroxy-olean-12-en-28-amide] | 10.04 ± 1.70% | mixed-type | > 50000 nM | 550 ± 20 nM | 74.50 ± 0.93% | – | – | – |
| CC1(C)CCC2(C(=O)NCCN3CCCC3)CCC3(C)C(=CCC4C5(C)CC(O)C(O)C(C)(C)C5CCC43C)C2C1 (stereo not drawn) [Compound 38, (2α,3β)-N-(2-Pyrrolidin-1-ylethyl)-2,3-dihydroxy-olean-12-en-28-amide] | – | mixed-type | 14150 ± 2420 nM | 2060 ± 30 nM | – | 23.33 ± 0.22% | 77.49 ± 0.10% | – |
| C=C(C)C1CC[C@]2(C(=O)NCCN3CCCC3)CC[C@]3(C)C(CCC4[C@@]5(C)CC[C@H](O)C(C)(C)C5CC[C@]43C)C12 (stereo partly drawn) [Compound 39] | – | mixed-type | > 9000 nM | 3240 ± 580 nM | – | 58.81 ± 0.80% | 60.48 ± 0.05% | – |
| CC(=O)[C@@H]1CC[C@]2(C(=O)NCCN3CCCC3)CC[C@]3(C)[C@H](CC[C@@H]4[C@@]5(C)CC[C@H](O)C(C)(C)[C@@H]5CC[C@]43C)[C@@H]12 [Compound 40] | – | mixed-type | > 10000 nM | 450 ± 10 nM | – | 33.06 ± 0.45% | 89.15 ± 0.44% | Type of Inhibition [2]: mixed-type; Ki' (uncompetitive inhibition) [2]: 23630 ± 390 nM; Ki [2]: 28000 ± 2990 nM |
| CC(=O)O[C@H]1CC[C@@]2(C)C(CC[C@]3(C)C2CC=C2C4[C@@H](C)[C@H](C)CC[C@]4(C(=O)NCCN4CCCCC4)CC[C@]23C)C1(C)C (stereo partly drawn) [Compound 41] | – | – | – | – | – | – | – | solubility under the conditions of the assay [1]: n.sol. |
| CC(=O)OC1CCC2(C)C(CCC3(C)C2CC=C2C4CC(C)(C)CCC4(C(=O)NCCN4CCCCC4)CCC23C)C1(C)C (stereo not drawn) [Compound 42, (3β)-N-(2-Piperidin-1-ylethyl)-3-acetyloxy-olean-12-en-28-amide] | – | – | – | – | – | 45.57 ± 0.25% | 53.09 ± 0.14% | – |
| CC(=O)OC1CC2(C)C(CCC3(C)C2CC=C2C4CC(C)(C)CCC4(C(=O)NCCN4CCCCC4)CCC23C)C(C)(C)C1OC(C)=O (stereo not drawn) [Compound 43, (2α,3β)-N-(2-Piperidin-1-ylethyl)-2,3-diacetyloxy-olean-12-en-28-amide] | – | – | – | – | – | 23.30 ± 0.10% | 53.47 ± 3.47% | – |
| C=C(C)C1CC[C@]2(C(=O)NCCN3CCCCC3)CC[C@]3(C)C(CCC4[C@@]5(C)CC[C@H](OC(C)=O)C(C)(C)C5CC[C@]43C)C12 (stereo partly drawn) [Compound 44] | – | – | – | – | – | 22.78 ± 0.85% | 33.83 ± 0.43% | – |
| CC(=O)O[C@H]1CC[C@]2(C)[C@H]3CC[C@@H]4[C@H]5[C@H](C(C)=O)CC[C@]5(C(=O)NCCN5CCCCC5)CC[C@@]4(C)[C@]3(C)CC[C@H]2C1(C)C [Compound 45, (3β)-N-(2-Piperidin-1-ylethyl)-3-acetyloxy-20-oxo-30-norlupan-28-amide] | no inhibition | mixed-type | 4880 ± 210 nM | 710 ± 40 nM | 83.44 ± 1.00% | – | – | – |
| CC1(C)CC[C@]2(C(=O)NCCN3CCCCC3)CC[C@]3(C)C(=CC[C@@H]4[C@@]5(C)CC[C@H](O)C(C)(C)[C@@H]5CC[C@]43C)[C@@H]2C1 [Compound 47, (3β)-N-(2-Piperidin-1-ylethyl)-3-hydroxy-olean-12-en-28-amide] | – | mixed-type | 10420 ± 1360 nM | 1570 ± 10 nM | – | 38.65 ± 0.29% | 74.89 ± 0.04% | – |
| CC1(C)CCC2(C(=O)NCCN3CCCCC3)CCC3(C)C(=CCC4C5(C)CC(O)C(O)C(C)(C)C5CCC43C)C2C1 (stereo not drawn) [Compound 48, (2α,3β)-N-(2-Piperidin-1-ylethyl)-2,3-dihydroxy-olean-12-en-28-amide] | 9.32 ± 0.29% | mixed-type | 6210 ± 470 nM | 2260 ± 50 nM | 69.30 ± 1.12% | – | – | – |
| C=C(C)C1CC[C@]2(C(=O)NCCN3CCCCC3)CC[C@]3(C)C(CCC4[C@@]5(C)CC[C@H](O)C(C)(C)C5CC[C@]43C)C12 (stereo partly drawn) [Compound 49, (3β)-N-(2-piperidin-1-ylethyl)-3-hydroxy-lup-20(29)-en-28-amide] | 82.72 ± 0.09% | mixed-type | > 8000 nM | 2520 ± 290 nM | 66.02 ± 0.70% | – | – | Type of Inhibition [2]: mixed-type; Ki' (uncompetitive inhibition) [2]: 1420 ± 80 nM; Ki [2]: 1000 ± 90 nM |
| CC(=O)[C@@H]1CC[C@]2(C(=O)NCCN3CCCCC3)CC[C@]3(C)[C@H](CC[C@@H]4[C@@]5(C)CC[C@H](O)C(C)(C)[C@@H]5CC[C@]43C)[C@@H]12 [Compound 50, (3β)-N-(2-Piperidin-1-ylethyl)-3-hydroxy-20-oxo-30-norlupan-28-amide] | 52.14 ± 1.55% | mixed-type | 3090 ± 30 nM | 970 ± 40 nM | 88.37 ± 0.85% | – | – | – |
